Test results: PMC4405350, “From Broad-Spectrum Biocides to Quorum Sensing Disruptors and Mussel Repellents: Antifouling Profile of Alkyl Triphenylphosphonium Salts” (PLoS ONE, 2015)

Assays:
Fusarium sp. = test: Marine-derived fungi growth inhibition (OD405); format: cell-based; settings: Fusarium, 120 h, 5 days, 26 °C
Description: All the biological assays were run by triplicate.
Three strains of marine-derived fungi were kindly provided by Dr. Á. Trigos (University of Veracruz, Mexico). The strains were isolated from reef organisms collected from the Veracruz Reef System and identified as Aspergillus sp., Fusarium sp. and Alternaria sp..
Fungal strains were cultured in Potato-Dextrose Agar (PDA) supplemented with filtered seawater (FSW) (50% v/v) at 26 °C for 5 days prior to experiments. […] Briefly, fungal inocula were prepared by addition of 5 ml of sterile saline solution to the cultures. Gently swabbing released conidia. […] The plates were incubated for 5 days at 26 °C. The calculation of the half-maximal inhibitory concentrations (IC50) was performed using OD405 as endpoint.

C. violaceum CVO26 = C. violaceum CVO26 growth inhibition (OD625); format: cell-based; settings: Chromobacterium violaceum, CVO26, 18 h, read-out: IC50 (Growth inhibition)
Description: (§1) The reporter strain C. violaceum CVO26 (CECT 5999) was used to screen the ability of the products to interfere with violacein production, a QS-regulated phenotype. C. violaceum CVO26 is a mini-Tn5 mutant that depends on an exogenous source of autoinducer (AI) (N-hexanoyl homoserine lactone, HHL) for violacein production. C. violaceum CVO26 was cultured in LB broth (Sigma-Aldrich) supplemented with 25 μg ml^-1 kanamycin. Inocula were prepared by dilution (1:100) of an overnight culture of the reporter strain [49]. One hundred microliters of inoculum with HHL (Sigma-Aldrich, 6 μM) or without the AI were added to 96-well plates containing 100 μl of the appropriate dilutions of the test products in LB. Thus, two sets of plates were prepared. One set of plates (without HHL) was used to evaluate the effect of the products on bacterial growth, whereas the other set of plates (with HHL) was used to evaluate their effect on violacein production. Both sets of plates were incubated at 30 °C with agitation (150 rpm) for 18 h.
(§2) Growth inhibition was quantified in the first batch of plates by re-suspending bacterial pellets and measuring the OD625. From the second batch of plates violacein was extracted and quantified. Briefly, the plates were dried overnight (60 °C) and violacein was re-solubilized by the addition of 200 μl of DMSO. The plates were shaken for 3 h and then the OD590 was determined.
(§3) Indeed, the inhibitions observed in violacein production for long alkyl chains (10–18, 20) were clearly correlated to the biocidal effect exerted by these compounds, with ‘therapeutic ratios’ (IC50 for growth inhibition/IC50 for violacein inhibition) around 1, in general (Table 2). Note that, as the length of the hydrocarbon chain becomes shorter, this ratio increased (8–9). […] To evaluate these compounds in further detail, […] stock solutions were prepared […] to avoid the use of high concentrations of DMSO in the bioassays. […] Serial two-fold dilutions (500–3.9 μM) were assayed. Consequently, the highest amount of DMSO used in the assay was 0.25% (v/v). […] Growth inhibitory effects are only observed at 500 μM, particularly for compound 7 (Fig 6D).

Artemia salina nauplii = test: in vivo; settings: instar I nauplii, 24 h, 28 °C
Description: All the biological assays were run by triplicate. […] For the active products, serial dilutions were performed to calculate the half-maximal inhibitory concentrations (IC50) or the minimal inhibitory concentrations (MIC). Unless otherwise stated, the test concentrations were 100, 50, 25, 10, 5, 2.5, 1, 0.5 and 0.1 μM. Dose-response curves were adjusted with GraphPad Prism 5 software using a four-parameter non-linear regression model.
Artemia salina cysts (INVE Aquaculture, Ghent, Belgium) were hatched in brackish water (30 ‰ salinity) at 28 °C with aeration and under constant light. Newly hatched instar I nauplii were harvested for bioassays. Tests were conducted in 96-well plates (15±5 nauplii per well, test volume = 200 μl). The number of dead and alive individuals was recorded after 24 h of incubation at 28 °C and 24-hour photoperiod.

[1] = system: violacein production of C. violaceum CVO26; test: Quorum sensing bioassay: violacein production; format: cell-based, Chromobacterium violaceum; settings: 18 h; for IC50: Chromobacterium violaceum, read-out: IC50 (Violacein inhibition); for IC50 (Violacein inhibition): with HHL, compounds 3-5 and 7 tested up to 500 μM, others up to 100 μM
Description: as §1, §2
To evaluate the effect of the alkyl triphenylphosphonium salts on QS-regulated phenotypes, an initial screening at the cut-off concentration of 100 μM was conducted with C. violaceum CVO26. The QS model of C. violaceum is relatively simple and consists of an acyl-homoserine lactone synthase (CviI) that produces the AI molecule N-hexanoyl homoserine lactone (HHL, strain ATCC 31532), or N-3-hydroxydecanoyl homoserine lactone (strain ATCC 12472) which is recognized by the cytoplasmic receptor CviR (Fig 4). The reporter strain CVO26 is a CviI::mini-Tn5 mutant of strain ATCC 31532 and thus recognizes HHL. CviR is a DNA-binding transcription factor that activates the expression of the genes encoding the production of violacein, the characteristic purple alkaloid that gives name to the species.
as §3

[2] = system: V. harveyi BB886 (luxPQ::Tn5kan); test: Quorum sensing bioassay: bioluminescence; format: cell-based; settings: Vibrio harveyi, 18 h, read-out: IC50 Luminescence BB886
Description: (§4) V. harveyi BB120 (wild type strain), BB170 (luxN::Tn5kan), BB886 (luxPQ::Tn5kan) and BB721 (luxO::Tn5lacZ) were acquired from ATCC. To screen the ability of the compounds to interfere with QS, the test products were serially diluted in 100 μl of Autoinducer Bioassay (AB) medium using white, clear-bottom 96-well microtiter plates (Costar 3610) as assay platform. Aerobic bacterial cultures were incubated overnight (30 °C) and diluted 1:50. One-hundred μl of the diluted cultures were dispensed inside each well in the microtiter plate. That gave a starting cell density of 1–2 x 10^7 cfu ml^-1. The plates were covered with a sterile sealing film. Luminescence and OD600 were monitored every 15 min over 18 h with a multimode plate reader (Perkin-Elmer EnSpire) in order to correlate the effects of the products on both the growth and bioluminescence kinetics.
(§5) Compounds 3–5 and 7 were evaluated in V. harveyi WT and three mutant strains: BB886 (luxPQ::Tn5Kan), unable to detect AI-2; BB170 (luxN::Tn5Kan), unable to detect HAI-1; and BB721 (luxO::Tn5lacZ), a LuxO null mutant that produces maximal luminescence per cell constitutively. In order to take into account the cumulative effects of the compounds, bioluminescence and growth were measured simultaneously every 15 min over 18 h (Fig 7). Accordingly, IC50 values for bacterial luminescence and growth were obtained by integration of the areas under the curves for each tested dose (Table 3). For clarity of the graphs, error bars has been omitted in Fig 7 and only the mean curves are shown.

[3] = system: V. harveyi BB170 (luxN::Tn5kan); test: Quorum sensing bioassay: bioluminescence; format: cell-based; settings: Vibrio harveyi, 18 h, read-out: IC50 Luminescence BB170
Description: as §4, §5

[4] = system: V. harveyi BB721 (luxO::Tn5lacZ); test: Quorum sensing bioassay: bioluminescence; format: cell-based; settings: Vibrio harveyi, 18 h, read-out: IC50 Luminescence BB721
Description: as §4, §5

[5] = system: V. harveyi BB120 (wild type strain); test: Quorum sensing bioassay: bioluminescence; format: cell-based; settings: Vibrio harveyi, 18 h, read-out: IC50 Luminescence WT
Description: as §4, §5

| Compound | IC50 (Fusarium sp.) [µM] | IC50 (C. violaceum CVO26) [µM] | IC50 A. salina (LC50) (Artemia salina nauplii) [µM] | IC50 [1] [µM] | IC50 [2] [µM] | IC50 [3] [µM] | IC50 [4] [µM] | IC50 [5] [µM] | IC50 (Violacein inhibition) [1] |
| --- | --- | --- | --- | --- | --- | --- | --- | --- | --- |
| CCCCCCC[P+](c1ccccc1)(c1ccccc1)c1ccccc1 [Compound 8, heptyl triphenylphosphonium bromide] | > 100 | 52.5 | 20.4 | 19 |  |  |  |  |  |
| CCCCCCCCCCCCC[P+](c1ccccc1)(c1ccccc1)c1ccccc1 [Compound 13] | 6.5 | 3.2 | 0.9 | 3.9 |  |  |  |  |  |
| C/C=C/C[P+](c1ccccc1)(c1ccccc1)c1ccccc1 [Compound 3] | > 100 | > 500 | >100 | 92.3 | 265 | 251 | 348 | 297 |  |
| CCCCCCCCCCCCCCC[P+](c1ccccc1)(c1ccccc1)c1ccccc1 [Compound 15] | 4.2 | 2.6 | 2.8 | 1.2 |  |  |  |  |  |
| CCCCCCCCCC[P+](c1ccccc1)(c1ccccc1)c1ccccc1 [Compound 10] | 21 | 11.9 | 1.4 | 7.7 |  |  |  |  |  |
| CCCCCCCCCCCCCCCC[P+](c1ccccc1)(c1ccccc1)c1ccccc1 [Compound 16] | 9.3 | 3.2 | 1.8 | 4.2 |  |  |  |  |  |
| CCCCCCCCCCCC[P+](c1ccccc1)(c1ccccc1)c1ccccc1 [Compound 12] | 6.6 | 10.3 | 2.4 | 6.6 |  |  |  |  |  |
| CCCCC[P+](c1ccccc1)(c1ccccc1)c1ccccc1 [Compound 7] | > 100 | > 500 | >100 | 52.9 | 179 | 129 | 276 | 205 |  |
| BrCCCC[P+](c1ccccc1)(c1ccccc1)c1ccccc1 [Compound 4] | > 100 | > 500 | 92.7 | 142 | 307 | 226 | > 500 | > 500 |  |
| CCCCCCCCCCC[P+](c1ccccc1)(c1ccccc1)c1ccccc1 [Compound 11] | 5.3 | 4.9 | 1.8 | 3.5 |  |  |  |  |  |
| CCCCCCCCC[P+](c1ccccc1)(c1ccccc1)c1ccccc1 [Compound 9] | 31.4 | 16 | 2.0 | 7.6 |  |  |  |  |  |
| CCCCCCCCCCCCCC[P+](c1ccccc1)(c1ccccc1)c1ccccc1 [Compound 14] | 5.1 | 2.3 | 1.8 | 4.6 |  |  |  |  |  |
| BrC(Br)[P+](c1ccccc1)(c1ccccc1)c1ccccc1 [Compound 1] | > 100 | > 100 | >100 | > 100 |  |  |  |  | inactive |
| COC(=O)CCC[P+](c1ccccc1)(c1ccccc1)c1ccccc1 [Compound 2] | > 100 | > 100 | >100 | > 100 |  |  |  |  | inactive |
| c1ccc([P+](CCCCCCCCCCCC[P+](c2ccccc2)(c2ccccc2)c2ccccc2)(c2ccccc2)c2ccccc2)cc1 [Compound 20] | 5.6 | 12.8 | 3.0 | 16.7 |  |  |  |  |  |
| O=C(O)CCCCCCCCCC[P+](c1ccccc1)(c1ccccc1)c1ccccc1 [Compound 19] | > 100 | > 100 |  | > 100 |  |  |  |  |  |
| CCCCCCCCCCCCCCCCCC[P+](c1ccccc1)(c1ccccc1)c1ccccc1 [Compound 17] | 8.8 | 7 | <0.5 | 7 |  |  |  |  |  |
| CCCCCCCCCCCCCCCCCCC[P+](c1ccccc1)(c1ccccc1)c1ccccc1 [Compound 18] | 7.3 | 40.1 | <0.5 | 35.2 |  |  |  |  |  |
| O=S(=O)([O-])CCCC[P+](c1ccccc1)(c1ccccc1)c1ccccc1 [Compound 6] | > 100 | > 100 | >100 | > 100 |  |  |  |  |  |
